Measured values reported in patent US11299460B2, “MDM2 inhibitor, preparation method therefor, pharmaceutical composition thereof and use thereof” (SHANGHAI LONGWOOD BIOPHARMACEUTICALS CO., LTD., priority 2018, dated 2022).

Assays:
[1] = biological target: T1, GST-hMDM2 (aa1-188) (Homo sapiens, UniProt Q00987); experiment: Homogeneous time resolved fluorometry (HTRF assay), hMDM2/p53 interaction; format: binding; details: HTRF analysis; GST-hMDM2 (aa1-188) / biotinylated-p53 (aa1-83)
T1 construct: The amino acid residues 1-188 of human MDM2 were expressed as GST-hMDM2 fusion protein; made in house; host or cells: E. coli
Procedure: Residues 1-83 of human p53 were expressed as avitag <TM>-trxa-6×his fusion protein (biotinlabelled p53) in E. coli. Each protein was separated from cell homogenate by affinity chromatography.
Specifically, 10 μL GST-hMDM2 was incubated with 10 uL diluted compound in 10% DMSO for 20 minutes at room temperature. 20 μL biotinlabelled-p53 was added to the mixture of GST-hMDM2 and then incubated at room temperature for 60 min. A 10 μL detection buffer consisting of SA-XLent, anti-GST cavernous compound antibody and KF was added to the reaction solution consisting of GST-hMDM2, biotinlabelled-p53 and the compound and was placed at room temperature to achieve equilibrium and maintained for more than 4 h. The final concentration of DMSO in the reaction solution was 2%. Time resolved fluorescence were measured on a microplate multi label reader. The inhibition percentage was calculated relative to nutlin-3.

[2] = tested on: p21 transcripts in SJSA-1 cells; experiment: p21 assay (QRT-PCR of p21 transcripts in SJSA-1 cells); format: cell-based, human; details: Homo sapiens, SJSA-1, 7 h, cell assay (SJSA-1 cell); p21 induction, 7 hours incubation
Source text: Inhibition of the interaction between hMDM2 and p53 results in the activation of the p53 pathway via the stabilization and accumulation of p53. P53 activates the transcription of many genes, one of which is p21<WAFT/CIP1>. To evaluate the potency of hMDM2 inhibitors, quantitative reverse transcription polymerase chain reaction (QRT PCR) was used to measure the level of p21 transcripts of compound related cells relative to that of control cells treated with dimethyl sulfoxide (DMSO).
In the first day, SJSA-1 cells were inoculated into 100 μL growth medium (RPMI1640; 10 mM HEPES; 1 mM sodium pyruvate; 1× penicillin streptomycin glutamine (PSQ) and 10% FBS, all reagents were obtained from Invitrogen) at a density of 3×10^4 cells in 96-well cell culture plate. The cells were cultured overnight at 37° C. and 5% CO2 atmosphere.
In the second day, hMDM2 inhibitor was gradient diluted in DMSO(Sigma-Aldrich; St. Louis, Mo.). 5 μl of each compound dilution were added into 245 μl filtered assay medium (RPMI1640, 10% FBS, 10 mM HEPES, 1 mM sodium pyruvate and 1×PSQ). Or the assay was conducted with the presence of 10% human serum or 10% mouse serum, or without serum. Growth medium was removed from inoculated SJSA-1 cell culture plate and replaced by 100 μL assay medium for each well. Then 100 μL culture medium containing diluted inhibitor was added into each well to a final volume 200 μL. The final concentration of the compound was in the range of 0.049 μm-50 μm by dose titration with DMSO as control. The cells were incubated at 37° C. and 5% CO2 for 7 hours with the presence of inhibitor. When incubation was completed, growth medium was removed from cells and the plate was stored at −80° C.
In the third day, giagen BioRobot Universal workstation was used to purify total RNA from SJSA-1 cells treated with inhibitor and DMSO respectively. The purification procedure herein was according to RNeasy96BioRobot8000 test kit provided by Qiagen, Valencia, Calif.
To measure the level of existing p21 transcripts, QRT-PCR was introduced. The levels of p21, housekeeping genes and glyceraldehyde 3-phosphate dehydrogenase (GAPDH) were determined by the total RNA from each inhibitor- or DMSO-treated well by duplicated test. The QRT-PCR reaction was performed on the Applied Biosystems prism 7900ht instrument using the relative quantitative (ΔΔ Ct) method according to the following cycle conditions: 48° C. for 30 minutes, then 95° C. for 10 minutes, and then was 40 cycles consisting of 95° C. for 15 seconds and 60° C. for 1 minute. The data were analyzed by using Applied Biosystems SDS2.2 software, with GAPDH as inner control and DMSO treated samples as calibrators. SDS2.2 software calculated the relative quantification (RQ) or increased fold of p21 level relative to DMSO control for each treated sample. The maximum (100%) p21 induction fold was defined by the maximum value of the fitting curve of the reference compound. The p21 induction fold of each inhibitor dose tested was converted to a value representing the percentage of the maximum value. XLFit software (ID business solutions, Alameda, Calif.) was used to make dose-response curve to calculate the IC50 transit value of each inhibitor tested.

T1 sequence (Q00987 1-188): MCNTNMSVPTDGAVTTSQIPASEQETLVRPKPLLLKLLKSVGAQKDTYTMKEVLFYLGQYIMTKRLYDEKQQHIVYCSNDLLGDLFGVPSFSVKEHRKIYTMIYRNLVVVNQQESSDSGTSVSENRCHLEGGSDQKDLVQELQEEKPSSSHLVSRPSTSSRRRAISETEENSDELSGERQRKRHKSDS

CC(C)[C@@H](CS(=N)(=O)C(C)C)N1C(=O)[C@@](C)(CC(=O)Nc2cccc(Br)c2)C[C@H](c2cccc(Cl)c2)[C@H]1c1ccc(Cl)cc1 (stereo partly drawn) [Compound 012]
IC50 [1]: > 0.1 µM
IC50 [2]: 1 to 10 µM

COc1cc(NC(=O)C[C@@]2(C)C[C@H](c3cccc(Cl)c3)[C@@H](c3ccc(Cl)cc3)N([C@H](CS(=O)(=NC(=O)N3CCOCC3)C(C)C)C(C)C)C2=O)ccc1C(=O)O (stereo partly drawn) [Compound 050]
IC50 [1]: < 0.01 µM
IC50 [2]: < 1 µM

COc1cc(C(=O)O)ccc1NC(=O)C[C@@]1(C)C[C@H](c2cccc(Cl)c2)[C@@H](c2ccc(Cl)cc2)N([C@H](C[S@](=O)(=NC(C)=O)C(C)C)C(C)C)C1=O [Compound 053]
IC50 [1]: < 0.01 µM
IC50 [2]: < 1 µM

COc1cc(C(=O)O)ccc1NC(=O)C[C@@]1(C)C[C@H](c2cccc(Cl)c2)[C@@H](c2ccc(Cl)cc2)N([C@H](CS(=N)(=O)C(C)C)C(C)C)C1=O (stereo partly drawn) [Compound 009]
IC50 [1]: < 0.01 µM
IC50 [2]: 1 to 10 µM

CC(C)[C@@H](CS(=N)(=O)C(C)C)N1C(=O)[C@@](C)(CC(=O)Nc2ccccc2)C[C@H](c2cccc(Cl)c2)[C@H]1c1ccc(Cl)cc1 (stereo partly drawn) [Compound 015]
IC50 [1]: 0.01 to 0.1 µM
IC50 [2]: 1 to 10 µM

CC(C)[C@@H](CS(=N)(=O)C(C)C)N1C(=O)[C@@](C)(CC(=O)NS(C)(=O)=O)C[C@H](c2cccc(Cl)c2)[C@H]1c1ccc(Cl)cc1 (stereo partly drawn) [Compound 018]
IC50 [1]: 0.01 to 0.1 µM
IC50 [2]: 1 to 10 µM

CC(C)[C@@H](CS(=N)(=O)C(C)C)N1C(=O)[C@@](C)(CC(=O)O)C[C@H](c2cccc(Cl)c2)[C@H]1c1ccc(Cl)cc1 (stereo partly drawn) [Compound 001]
IC50 [1]: < 0.01 µM
IC50 [2]: < 1 µM

CC(C)[C@@H](CS(=O)(=NC(=O)N(C)C)C(C)C)N1C(=O)[C@@](C)(CC(=O)O)C[C@H](c2cccc(Cl)c2)[C@H]1c1ccc(Cl)cc1 (stereo partly drawn) [Compound 045]
IC50 [1]: < 0.01 µM
IC50 [2]: < 1 µM

CC(C)[C@@H](CS(=N)(=O)C(C)C)N1C(=O)[C@@](C)(CC(=O)N[C@H]2CC[C@H](O)CC2)C[C@H](c2cccc(Cl)c2)[C@H]1c1ccc(Cl)cc1 (stereo partly drawn) [Compound 011]
IC50 [1]: 0.01 to 0.1 µM
IC50 [2]: 1 to 10 µM

CC(C)[C@@H](CS(=O)(=NC(N)=O)C(C)C)N1C(=O)[C@@](C)(CC(=O)O)C[C@H](c2cccc(Cl)c2)[C@H]1c1ccc(Cl)cc1 (stereo partly drawn) [Compound 034]
IC50 [1]: < 0.01 µM
IC50 [2]: < 1 µM

CC(C)[C@@H](CS(=N)(=O)C(C)C)N1C(=O)[C@@](C)(CC(=O)NC23CCC(C(=O)O)(CC2)CC3)C[C@H](c2cccc(Cl)c2)[C@H]1c1ccc(Cl)cc1 (stereo partly drawn) [Compound 010]
IC50 [1]: 0.01 to 0.1 µM
IC50 [2]: 1 to 10 µM

COc1cc(NC(=O)C[C@@]2(C)C[C@H](c3cccc(Cl)c3)[C@@H](c3ccc(Cl)cc3)N([C@H](C[S@](=O)(=NC(C)=O)C(C)C)C(C)C)C2=O)ccc1C(=O)O [Compound 042]
IC50 [1]: < 0.01 µM
IC50 [2]: < 1 µM
